The source of these data is patent publication US20260217730A1, “PROTEOLYSIS TARGETING CHIMERA COMPOUND” (BEIJING TIDE PHARMACEUTICAL CO., LTD., priority 2023, published 2026).

The target of one series is T1, SHP2 (Homo sapiens, UniProt Q06124).
T1 construct: endogenous in cells; host or cells: SUM159 triple-negative breast cancer cells
T1 sequence (Q06124 1-593): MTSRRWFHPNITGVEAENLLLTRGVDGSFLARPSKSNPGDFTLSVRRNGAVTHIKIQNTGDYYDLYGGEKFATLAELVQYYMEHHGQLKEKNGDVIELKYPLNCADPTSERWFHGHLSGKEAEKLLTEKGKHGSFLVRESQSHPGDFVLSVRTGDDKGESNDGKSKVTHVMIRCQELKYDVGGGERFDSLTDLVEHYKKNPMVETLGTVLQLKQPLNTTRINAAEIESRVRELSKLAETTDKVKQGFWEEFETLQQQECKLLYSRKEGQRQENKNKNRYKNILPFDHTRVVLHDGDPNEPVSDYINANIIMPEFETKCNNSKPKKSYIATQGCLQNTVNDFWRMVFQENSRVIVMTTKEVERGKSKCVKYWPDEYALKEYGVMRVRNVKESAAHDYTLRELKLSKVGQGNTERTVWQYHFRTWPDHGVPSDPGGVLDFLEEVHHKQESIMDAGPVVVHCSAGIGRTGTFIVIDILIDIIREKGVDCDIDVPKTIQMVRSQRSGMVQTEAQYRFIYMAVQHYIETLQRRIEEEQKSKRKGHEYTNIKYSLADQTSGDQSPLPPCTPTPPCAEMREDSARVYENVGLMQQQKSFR
The experiment in a line: Western blot, degradation of SHP2 in vitro. It is filed as cell-based. Conditions: degradation of SHP2 in SUM159 cells, 24 hours with compound. The procedure: 1. The Biological Activity of Compounds was Determined by Western Blot Method Using the Following Method:
Reagents: Complete 1640 medium was purchased from Gibco. Fetal bovine serum was purchased from ThermoFisher. Trypsin was produced by ThermoFisher. SHP-2 antibody was produced by CST.
(§1) Cell line: SUM159 triple-negative breast cancer cell line was established by Rovera.
Method for assay: Cells growth in the logarithmic phase were collected and suspended in a 1640 medium containing 10% fetal bovine serum, which was then gently pipetted into a single-cell suspension. Viable cells were counted under microscope. 9 mL of the cell suspension was seeded and cultured in a 10 cm culture dish at a final concentration of 2×10^5 cells/mL. After cells were pre-cultured for 24 hours at 37° C. and 5% CO2, different concentrations of solutions of the compounds of the present disclosure in DMSO were added (the final concentration of DMSO was no more than 0.5%), and the negative control group was added with the same volume of DMSO alone. After cultured for another 24 hours, all cells were collected and washed with PBS. The cells were lysed with RIPA lysis buffer, and the lysates were collected into a 1.7 mL centrifuge tube. The proteins were fully denatured after heating in the metal bath at 95° C. for 10 minutes. After loading the samples onto the gel for Western blotting, electrophoresis was performed at a constant voltage of 100V until the band of bromophenol blue reached the terminal point. The proteins were transferred onto a cellulose acetate membrane using the wet transfer method at a constant current of 300-500 mA for 45 minutes, and the proteins were blocked with 5% BSA at room temperature for 1-2 hours. The proteins were incubated with primary antibody diluted 1:500 to 1:8000 at room temperature for 2 hours, and then washed three times. Subsequently, the proteins were incubated with secondary antibody at room temperature for 1 hour. The detection of proteins was performed using ultrasensitive ECL luminescent liquid such as Enlight, and signals were captured using an automatic X-ray film developing machine. For the test results, see the in vitro Western Blot experiment of Example 1 and the in vitro Western Blot experiment of Example 3.
The compounds of the present disclosure have good in vitro anti-solid tumor and anti-blood tumor activities and have low toxicity to normal cells.
(In western blotting, separated proteins are transferred to a membrane and probed.)

Series [1] has as its system SUM159 triple-negative breast cancer cell line. The experiment in a line: CCK8 method, cell viability. It is filed as cell-based. Conditions: SUM159 cells, 72 hours, CCK8 absorbance. On the procedure: 2. The Biological Activity of Compounds was Determined by CCK8 Method Using the Following Method:
Reagents: Complete RPMI 1640 medium was purchased from Gibco. Fetal bovine serum was purchased from ThermoFisher. Trypsin was produced by ThermoFisher. SHP-2 antibody was produced by CST. CCK8 was produced by abcam.
as §1
Method for assay: Cells growth in the logarithmic phase were collected and suspended in a RPMI 1640 medium containing 10% fetal bovine serum, which was then gently pipetted into a single-cell suspension. Viable cells were counted under microscope. The cells were seeded into a 96-well plate at a density of 3-6*10^3 cells per well and cultured in an incubator for 24 hours. Test compounds were diluted in multiples, and then the cell culture supernatant was added. The cells were cultured for another 72 hours, and 10 μL of CCK8 detection solution was added to each well. After incubating for 1-4 hours, the absorbance was measured using a microplate reader.

The next series is described as follows: PAMPA experiment. Format: in vitro ADME. Conditions: 1.8% lecithin membrane, drug test solution 10 μM, 37° C., 16 hours. On the procedure:
Reagents: lecithin, n-dodecane, HEPES, dimethyl sulfoxide (DMSO), acetonitrile
Instrument and equipment: Multiscreen 96-well plate (up Merck Millipore), Multiscreen 96-well plate (down Merck Millipore), electronic analytical balance, constant temperature incubator, high performance liquid chromatography-mass spectrometry (LC-MS)
Method for operation: Preparation of PAMPA artificial membrane: about 18 mg of lecithin was weighed accurately, and placed into a 1.5 mL EP tube. 1 mL of n-dodecane was added. The mixture was dissolved by ultrasonication, and then thoroughly mixed to obtain a 1.8% lecithin membrane.
The upper layer of the PAMPA model was the plate lid, the middle layer was the 96-well filter plate (donor plate), and the lower layer was the accepter plate. 5 μL of the above 1.8% lecithin membrane was added to the filter membrane of the donor plate, and then 150 μL of the drug test solution (10 μM) was added. 300 μL of HEPES solution was added to each well of the accepter plate (completed within 10 minutes). The donor plate was slowly placed onto the accepter plate and incubated at 37° C. for 16 hours.
LC-MS detection: 100 μL of the positive control and the test compound was weighed respectively, to which 100 μL of acetonitrile-DMSO solution [acetonitrile-DMSO (4:1)] was added. The mixture was mixed well, and detected by LC-MS at OH and 16H. The corresponding molecular ion peak was extracted and the peak area was obtained; After the PAMPA model was incubated at 37° C. for 16 h, 100 μL of the test solution in the donor plate and the accepter plate was weighed respectively, to which 100 μL of acetonitrile-DMSO solution [acetonitrile-DMSO (4:1)] was added. The mixture was mixed well, and detected by LC-MS. The corresponding molecular ion peak was extracted, the peak area was obtained, and the concentration was calculated.
(In general: In PAMPA a lipid-coated filter parts donor from acceptor wells.)

One may read the DC50 as the concentration giving 50% degradation. One may read the IC50 as the concentration that gives 50% inhibition.

Consider `O=C1CC(=O)OCN2C(=O)CCC(C2=O)N2Cc3cc(ccc3C2=O)OCCOC/C=C\COCCOc2ccc(c(Cl)c2)-c2cc(=O)c3cc(I)c(cc3o2)CO1` (centres unmarked) [Example 1], for which the DC50 at SHP2 was determined as 210 nM. This compound also came in with an IC50 in series [1] of 28.8 nM. Moreover, in “PAMPA experiment”, the “PAMPA (−Log Pe)” value is 6.71.

As to `O=C1CCC2C(=O)N1COP(=O)(O)OCc1cc3oc(cc(=O)c3cc1I)-c1ccc(cc1Cl)OCCOC/C=C\COCCOc1ccc3c(c1)C(=O)N2C3=O` (centres unmarked) [Example 2], the half-inhibitory concentration (IC50) in series [1] stood at 1000 nM. In addition, the “PAMPA (−Log Pe)” value in the series “PAMPA experiment” amounted to 6.0.

`O=C1OCc2cc3oc(cc(=O)c3cc2I)-c2ccc(cc2Cl)OCCOC/C=C\COCCOc2ccc3c(c2)CN(C3=O)C2CCC(=O)N(COC1=O)C2=O` (centres unmarked) [Example 3]: at SHP2, the DC50 turned out to be 37 nM. In series [1], this compound gave an IC50 of 7.43 nM. Besides, in “PAMPA experiment”, the “PAMPA (−Log Pe)” value is listed as 5.94.

In the case of `O=C1CC(=O)OCN2C(=O)CCC(C2=O)N2Cc3cc(ccc3C2=O)OCCCC/C=C\CCCCOc2ccc(c(Cl)c2)-c2cc(=O)c3ccc(cc3o2)CO1` (centres unmarked) [Example 4], in series [1], the half-inhibitory concentration (IC50) came out at 718 nM. In the series “PAMPA experiment”, the “PAMPA (−Log Pe)” value is 6.11.

Turning to `O=C1OCc2cc3oc(cc(=O)c3cc2I)-c2ccc(cc2Cl)OCCOC/C=C\COCCOc2ccc3c(c2)CN(C3=O)C2CCC(=O)N(COC(=O)c3cccc1c3)C2=O` (centres unmarked) [Example 5], the DC50 on SHP2 is 500 nM. In series [1], this compound came in with a half-inhibitory concentration (IC50) of 200 nM. Besides, the “PAMPA (−Log Pe)” value in “PAMPA experiment” came to 5.78.

For the compound `O=C1OCc2ccc3c(=O)cc(oc3c2)-c2ccc(cc2Cl)OCCCC/C=C/CCCCOc2ccc3c(c2)CN(C3=O)C2CCC(=O)N(COC(=O)c3cccc1c3)C2=O` (centres unmarked) [Example 6], the half-maximal degradation concentration (DC50) at SHP2 turned out to be 10 nM. This compound displayed an IC50 in series [1] above 5000 nM. Besides, the “PAMPA (−Log Pe)” value in the series “PAMPA experiment” stood at 8.55.

As for `O=C1CC(=O)OCN2C(=O)CCC(C2=O)N2Cc3cc(ccc3C2=O)OCCOC/C=C\COCCOc2ccc(c(Cl)c2)-c2cc(=O)c3ccc(cc3o2)CO1` (centres unmarked) [Example 7], on SHP2, the DC50 is 188 nM. In addition, it took 23.1 nM to reach half-maximal inhibition in series [1] (IC50).

`N[C@H]1CCC(=O)OCc2ccc3c(=O)cc(oc3c2)-c2ccc(cc2Cl)OCCOC/C=C/COCCOc2ccc3c(c2)CN(C3=O)C2CCC(=O)N(COC1=O)C2=O` (some centres unmarked) [Example 8] showed an IC50 in series [1] of 5.33 nM. In “PAMPA experiment”, the “PAMPA (−Log Pe)” value came to 4.68.

`CN1CC(=O)OCc2ccc3c(=O)cc(oc3c2)-c2ccc(cc2Cl)OCCOC/C=C/COCCOc2ccc3c(c2)CN(C3=O)C2CCC(=O)N(COC(=O)C1)C2=O` (centres unmarked) [Example 9]: on SHP2, the 50% degradation concentration (DC50) stood at 4.21 nM. In addition, half-maximal inhibition in series [1] (IC50) was put at 2.39 nM. The “PAMPA (−Log Pe)” value in “PAMPA experiment” amounted to 5.52.

Regarding `CN1CC(=O)OCc2ccc3c(=O)cc(oc3c2)-c2ccc(cc2Cl)OCCOCCCCOCCOc2ccc3c(c2)CN(C3=O)C2CCC(=O)N(COC(=O)C1)C2=O` (centres unmarked) [Example 10], the half-maximal degradation concentration (DC50) on SHP2 came out at 5.94 nM. The compound further had a concentration for half-maximal inhibition (IC50) in series [1] of 3.5 nM. Further, in “PAMPA experiment”, the “PAMPA (−Log Pe)” value is listed as 5.56.
